We go through 20 molecules from patent publication US9481654B2, “Compositions and methods for inhibition of the JAK pathway” (Rigel Pharmaceuticals, Inc., priority 2006, dated 2016).

The test has as its system IL-4 stimulated CD23 upregulation in human Ramos B cells (JAK-1/JAK-3, Stat-6). Briefly: Assay for Ramos B-Cell Line Stimulated with IL-4 (CD23 upregulation, FACS). The class given is cell-based. From the text:
One means of assaying for such inhibition is detection of the effect of the 2,4-pyrimidinediamine compounds on the upregulation of downstream gene products. In the Ramos/IL4 assay, B-cells are stimulated with the cytokine Interleukin-4 (IL-4) leading to the activation of the JAK/Stat pathway through phosphorylation of the JAK family kinases, JAK1 and JAK3, which in turn phosphorylate and activate the transcription factor Stat-6. […] To study the effect of inhibitors (e.g., the 2,4-substituted pyrimindinediamine compounds described herein) on the JAK1 and JAK3 kinases, human Ramos B cells are stimulated with human IL-4. 20 to 24 hours post stimulation, cells are stained for upregulation of CD23 and analyzed using flow cytometry (FACS).
B-cells stimulated with cytokine Interleukin-4 (IL-4) activate the JAK/Stat pathway through phosphorylation of the JAK family kinases, JAK-1 and JAK-3, which in turn phosphorylate and activate the transcription factor Stat-6. […] To study the effect of inhibitors on the JAK family kinases, human Ramos B cells are stimulated with human IL-4.
Cells were maintained at a density of 3.5×10^5. The day before the experiment, Ramos B-cells were diluted to 3.5×10^5 cells/mL to ensure that they were in a logarithmic growth phase.
Cells were spun down and suspended in RPMI with 5% serum. 5×10^4 cells were used per point in a 96-well tissue culture plate. Cells were pre-incubated with compound or DMSO (Sigma-Aldrich, St. Louis, Mo., Cat No. D2650) vehicle control for 1 hour in a 37° C. incubator. Cells were then stimulated with IL-4 (Peprotech Inc., Rocky Hill, N.J., Cat No. 200-04) for a final concentration of 50 units/mL for 20-24 hours. […] Detection was performed using a BD LSR I System Flow Cytometer, purchased from Becton Dickinson Biosciences of San Jose, Calif.

Setting [1] is: Table III Example 3, sodium salt.

Where a name gives a salt, the structure may show the parent alone.

`CCCC(=O)NS(=O)(=O)c1cccc(Nc2ncc(C)c(Nc3cccc(CN(C(=O)CCC)S(=O)(=O)C4CC4)c3)n2)c1` [Compound I-222, N2-(3-butyrylaminosulfonyl)phenyl-N4-[3-(N-butyryl-N-cyclopropylsulfonyl)aminomethyl]phenyl-5-methyl-2,4-pyrimidinediamine Choline salt] came in with an IC50 (Table III Example 3) of 3.03 µM.

`CCC(=O)NS(=O)(=O)c1cccc(Nc2ncc(C)c(Nc3cccc(CNS(=O)(=O)C4CC4)c3)n2)c1` [Compound I-136, N4-(3-cyclopropylsulfonylaminomethyl)phenyl-5-methyl-N2-(3-propionylaminosulfonyl)phenyl-2,4-pyrimidinediamine]: the IC50 (Table III Example 3) stood at 1.63 µM.

`Cc1cnc(Nc2cccc(S(=O)(=O)NC(=O)CN)c2)nc1Nc1cccc(CNS(=O)(=O)C2CC2)c1` [Compound I-131, N2-[3-N-(2-amino-1-oxoethyl)aminosulfonyl]phenyl-N4-(3-cyclopropylsulfonylaminomethyl)phenyl-5-methyl-2,4-pyrimidinediamine] had an IC50 (Table III Example 3) of 0.557 µM.

With `CCC(=O)NS(=O)(=O)c1ccc(Nc2ncc(C)c(Nc3ccc(CN(C(=O)CC)S(=O)(=O)CC)cc3)n2)cc1` [Compound I-91, N4-[4-(N-ethylsulfonyl-N-propionyl)aminomethyl]phenyl-5-methyl-N2-(4-propionylaminosulfonyl)phenyl-2,4-pyrimidinediamine], the IC50 (Table III Example 3) is 1.29 µM.

On to `CCC(=O)NS(=O)(=O)c1cc(Nc2ncc(F)c(Nc3ccc(CNS(=O)(=O)C4CC4)cc3)n2)ccc1C` [Compound I-63, N4-(4-cyclopropylsulfonylaminomethyl)phenyl-5-fluoro-N2-(4-methyl-3-propionylaminosulfonyl)phenyl-2,4-pyrimidinediamine sodium salt], for which the IC50 under setting [1] amounted to 9.45 µM.

With `CCCC(=O)NS(=O)(=O)c1ccc(Nc2ncc(C)c(Nc3ccc(CN(C(=O)CCC)S(=O)(=O)C4CC4)cc3)n2)cc1` [Compound I-206, N2-(4-butyrylaminosulfonyl)phenyl-N4-[4-(N-butyryl-N-cyclopropylsulfonyl)aminomethyl]phenyl-5-methyl-2,4-pyrimidinediamine sodium salt], the IC50 under setting [1] was determined as 0.946 µM.

As to `CC(=O)NS(=O)(=O)c1ccc(Nc2ncc(C)c(Nc3ccc(CN(C(C)=O)S(=O)(=O)C4CC4)cc3)n2)cc1` [Compound I-194, N2-(4-acetamidosulfonyl)phenyl-N4-[4-(N-acetyl-N-cyclopropylsulfonyl)aminomethyl]phenyl-5-methyl-2,4-pyrimidinediamine], the IC50 (Table III Example 3) amounted to 1.65 µM.

Molecule `Cc1cnc(Nc2cccc(S(=O)(=O)NC3(C(=O)O)CCCC3)c2)nc1Nc1cccc(CNS(=O)(=O)C2CC2)c1` [Compound I-145, N2-[3-N-(cycloleucine)aminosulfonyl]phenyl-N4-(3-cyclopropylsulfonylaminomethyl)phenyl-5-methyl-2,4-pyrimidinediamine hydrogen chloride salt] registered an IC50 (Table III Example 3) of 8.54 µM.

The molecule `CC(=O)NS(=O)(=O)c1cccc(Nc2ncc(C)c(Nc3cccc(CN(C(C)=O)S(=O)(=O)C4CC4)c3)n2)c1` [Compound I-193, N2-(3-acetamidosulfonyl)phenyl-N4-[3-(N-acetyl-N-cyclopropylsulfonyl)aminomethyl]phenyl-5-methyl-2,4-pyrimidinediamine] came in with an IC50 (Table III Example 3) of 1.89 µM.

In the case of `CCC(=O)NS(=O)(=O)c1ccc(Nc2ncc(C)c(Nc3ccc(CN(C(=O)CC)S(=O)(=O)CC)cc3)n2)cc1` [Compound I-92, N4-[4-(N-ethylsulfonyl-N-propionyl)aminomethyl]phenyl-5-methyl-N2-(4-propionylaminosulfonyl)phenyl-2,4-pyrimidinediamine sodium salt], under setting [1], the IC50 was determined as 0.96 µM.

As for “N4-[3-(N-cyclopropylsulfonyl-N-valeryl)aminomethyl]phenyl-5-methyl-N2-(3-valerylaminosulfonyl)phenyl-2,4-pyrimidinediamine sodium salt [Compound I-221]”, the IC50 (Table III Example 3) amounted to 1.88 µM.

In the case of `Cc1cnc(Nc2cccc(S(=O)(=O)NC(=O)C(C)C)c2)nc1Nc1cccc(CN(C(=O)C(C)C)S(=O)(=O)C2CC2)c1` [Compound I-200, N4-[3-(N-cyclopropylsulfonyl-N-isobutyryl)aminomethyl]phenyl-N2-(3-isobutyrylaminosulfonyl)phenyl-5-methyl-2,4-pyrimidinediamine sodium salt], the IC50 under setting [1] came out at 2.31 µM.

On to `CCC(=O)NS(=O)(=O)c1cc(Nc2ncc(F)c(Nc3ccc(CNS(=O)(=O)C4CC4)cc3)n2)ccc1C` [Compound I-59, N4-(4-cyclopropylsulfonylaminomethyl)phenyl-5-fluoro-N2-(4-methyl-3-propionylaminosulfonyl)phenyl-2,4-pyrimidinediamine], for which it took 6.5 µM to reach half-maximal inhibition (Table III Example 3) (IC50).

As for `CCC(=O)NS(=O)(=O)c1cccc(Nc2ncc(F)c(Nc3ccc(CN(C(=O)CC)S(=O)(=O)C4CC4)cc3)n2)c1` [Compound I-62, N4-[4-(N-cyclopropylsulfonyl-N-propionyl)aminomethyl]phenyl-5-fluoro-N2-(3-propionylaminosulfonyl)phenyl-2,4-pyrimidinediamine sodium salt], under setting [1], the IC50 was 10.7 µM.

For the molecule `CCC(=O)NS(=O)(=O)c1cc(Nc2ncc(F)c(Nc3ccc(CN(C(=O)CC)S(=O)(=O)C4CC4)cc3)n2)ccc1C` [Compound I-64, N4-[4-(N-cyclopropylsulfonyl-N-propionyl)aminomethyl]phenyl-5-fluoro-N2-(4-methyl-3-propionylaminosulfonyl)phenyl-2,4-pyrimidinediamine sodium salt], the IC50 under setting [1] was determined as 4.27 µM.

`NS(=O)(=O)c1cccc(Nc2ncc(F)c(Nc3ccc4c(c3)CN(S(=O)(=O)C3CC3)C4)n2)c1` [II-5, N2-(3-Aminosulfonyl-phenyl)-N4-[(2-cyclopropylsulfonyl)-isoindolin-5-yl]-5-fluoro-2,4-pyrimidinediamine] registered an IC50 (Table III Example 3) of 0.698 µM.

For the molecule `CCCC(=O)N(COC(C)=O)S(=O)(=O)c1cccc(Nc2ncc(C)c(Nc3cccc(CNS(=O)(=O)C4CC4)c3)n2)c1` [Compound I-225, N2-[3-(N-acetoxymethyl-N-butyryl)aminosulfonyl]phenyl-N4-(3-cyclopropylsulfonylaminomethyl)phenyl-5-methyl-2,4-pyrimidinediamine], under “Table III Example 3”, 0.115 µM corresponded to half-maximal inhibition (IC50).

As to `CC(=O)NS(=O)(=O)c1ccc(Nc2ncc(C)c(Nc3ccc(CN(C(C)=O)S(=O)(=O)C4CC4)cc3)n2)cc1` [Compound I-197, N2-(4-acetamidosulfonyl)phenyl-N4-[4-(N-acetyl-N-cyclopropylsulfonyl)aminomethyl]phenyl-5-methyl-2,4-pyrimidinediamine sodium salt], the IC50 under setting [1] is 1.55 µM.

Take `CCCC(=O)NS(=O)(=O)c1cccc(Nc2ncc(C)c(Nc3cccc(CN(C(=O)CCC)S(=O)(=O)C4CC4)c3)n2)c1` [Compound I-205, N2-(3-butyrylaminosulfonyl)phenyl-N4-[3-(N-butyryl-N-cyclopropylsulfonyl)aminomethyl]phenyl-5-methyl-2,4-pyrimidinediamine sodium salt]: under setting [1], the IC50 came out at 3.44 µM.

With `CCCCC(=O)NS(=O)(=O)c1cccc(Nc2ncc(C)c(Nc3cccc(CN(C(=O)CCCC)S(=O)(=O)C4CC4)c3)n2)c1` [Compound I-220, N4-[3-(N-cyclopropylsulfonyl-N-valeryl)aminomethyl]phenyl-5-methyl-N2-(3-valerylaminosulfonyl)phenyl-2,4-pyrimidinediamine], half-maximal inhibition (Table III Example 3) (IC50) required 2.02 µM.

The term IC50 denotes the point on the concentration scale where inhibition reaches its midpoint.
